The nature of this data set: gradient 5% acetonitrile 3 min, to 50% in 2 min, to 85% in 15 min, held 3 min, 100 µL/min. The conditions noted are these: column: Zorbax Extend-C18 2.1 x 50 mm; eluents: water / acetonitrile, 0.1% formic acid. The essentials:
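Pure standards were run in mixtures of ~100 molecules by HPLC coupled to a quadrupole time-of-flight mass spectrometer. The column was a Zorbax Extend-C18 (2.1 × 50 mm, 1.8 μm) at 100 μL/min, with water and acetonitrile each containing 0.1% formic acid, in positive and negative ionization mode. Dead and dwell volumes were 40 μL and 900 μL. Retention time was taken from computationally picked adduct peaks, each manually inspected, with data collected over 3 months.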
Take `CCn1cc(CC(=O)NCCOC)c2cccnc21`: the RP-LC retention time is 576 s.

For `COc1ccc(NC(=O)N2CCC(c3cc(N)on3)CC2)cc1F`, the RP-LC retention time was 663 s.

`Cc1ccc(Nc2c(-c3ccc(O)cc3)nc3ccc(C)cn23)cc1` registered an RP-LC retention time of 721 s.

Take `CC(=O)Nc1onc(C)c1-c1ccc(C)c(S(=O)(=O)N2CCN(C3CCCCC3)CC2)c1`: the RP-LC retention time amounted to 629 s.

With `CCOC(=O)C(=O)Nc1c(C(=O)Nc2cccc(Cl)c2)oc2ccccc12`, the RP-LC retention time was found to be 1090 s.

Regarding `CCn1cc(-c2nc(C(=O)Nc3ccc(C)cc3F)cs2)c2cccnc21`, the RP-LC retention time came to 983 s.

The compound `Cc1cc(S(=O)(=O)NCCc2cn(C)c3ncccc23)ccc1F` gave an RP-LC retention time of 745 s.

Take `CCc1ccc(C2=C(C)C(N3CCCN(C(=O)c4ccccn4)CC3)=NS2(=O)=O)cc1`: the RP-LC retention time is 788 s.

`CC1CN2C=NC(N3CCN(C(=O)Nc4cc(F)cc(F)c4)CC3)=CC2=N1` (centres undefined) returned an RP-LC retention time of 664 s.

With `CCc1ccccc1NC(=O)N1CCCC1c1nc(-c2ccc(F)cc2F)no1` (centres undefined), the RP-LC retention time came out at 987 s.

Consider `CCC1CCCCN1Cc1nc(Cn2ccn3nc(-c4ccc(F)cc4)cc3c2=O)no1` (centres undefined), for which the RP-LC retention time turned out to be 704 s.

`CCc1cccc(C)c1Nc1c(-c2ccc(N3CCOCC3)cc2)nc2ncccn12` registered an RP-LC retention time of 806 s.

In turn, `COc1ccc(C2(C(=O)N3CCc4nn(C)c(=O)n4CC3)CC2)cc1` returned an RP-LC retention time of 657 s.

In turn, `COc1cc(OC)cc(C(=O)NCC2(O)CCOCC2)c1` yielded an RP-LC retention time of 589 s.

Take `CSc1ccc(-c2nc3nc(C)cc(C)n3c2Nc2ccccc2)cc1`: the RP-LC retention time came out at 755 s.

For `CCc1nc2ccccc2c(=O)n1Cc1noc(/C=C/c2ccc(OC)cc2)n1`, the RP-LC retention time is 1000 s.

In the case of `CC(C)CNC(=O)CCc1nc2ccccc2n(CC(=O)NCc2ccccc2)c1=O`, the RP-LC retention time was 769 s.

With `Cc1nn(CC(=O)NCCc2c[nH]c3ccc(Cl)cc23)c(=O)c2c(C)n(-c3ccccc3)nc12`, the RP-LC retention time amounted to 908 s.

`COc1ccc(S(=O)(=O)Nc2cc(-c3cn4ccc(C)cc4n3)ccc2C)cc1C` displayed an RP-LC retention time of 687 s.

The compound `Cc1ccc(-c2ncc3c(=O)n(CC(=O)NC(C)C)c(=O)n(C)c3n2)cc1` came in with an RP-LC retention time of 854 s.

`Cc1ccc(C2=NN3C(C2)c2ccccc2OC32CCCC2)o1` (centres undefined) displayed an RP-LC retention time of 942 s.

Consider `COCCCNC(=O)N1CCCC(C)(C(=O)NCc2ccc(C)cc2)C1` (centres undefined), for which the RP-LC retention time turned out to be 720 s.

As to `CCn1c(=O)c2ccccc2n(Cc2nc(-c3ccccc3OC)no2)c1=O`, the RP-LC retention time was 909 s.

The compound `COc1ccc(NC(=O)N2CCC(c3nc(C(=O)N4CCOCC4)c(C)o3)CC2)c(C)c1` had an RP-LC retention time of 663 s.

Compound `CCCn1c(=O)c2sc(N3CCCC3)nc2n(CC(=O)Nc2cc(F)cc(F)c2)c1=O` came in with an RP-LC retention time of 902 s.

Regarding `CCn1cnc2ccc(-c3noc(COc4ccc(OC)cc4)n3)cc21`, the RP-LC retention time is 743 s.

Turning to `CC(C)c1nnc(-c2cccnc2N2CCN(C(=O)c3ccc4c(c3)OCO4)CC2)o1`, the RP-LC retention time turned out to be 759 s.

Take `CCOC(=O)c1ccc(NC(=O)Cn2cnc3nc(N4CCCC(C(=O)NC)C4)sc3c2=O)cc1` (centres undefined): the RP-LC retention time turned out to be 658 s.

As for `O=C(NCc1cc(F)ccc1F)C1CCN(c2cncnc2N2CCOCC2)CC1`, the RP-LC retention time turned out to be 619 s.

Compound `Cc1ccc(S(=O)(=O)N2CCCC(C(=O)Nc3nnc(Cc4cccs4)o3)C2)cc1` (centres undefined) returned an RP-LC retention time of 810 s.

As to `CCOc1ccc(S(=O)(=O)N2CCCC(C(=O)NCc3ccncc3)C2)cc1C` (centres undefined), the RP-LC retention time was 659 s.

`COc1cc(OC)cc(C(=O)N2C[C@@H]3C[C@H](NC(=O)c4cccs4)[C@H]2C3)c1`: the RP-LC retention time came to 660 s.

`Cc1nn(-c2ccc(N3CCOCC3)nn2)c(C)c1CCC(=O)NCc1ccco1` yielded an RP-LC retention time of 633 s.

Turning to `Cc1nc(-c2cccc(-c3noc(COc4ccc(F)cc4)n3)c2)cs1`, the RP-LC retention time came out at 1200 s.

`Cc1cnc(C2CC2)n1CCNS(=O)(=O)c1ccccc1Cl` showed an RP-LC retention time of 613 s.

`OCC1CN(c2ncccn2)CC12CCN(Cc1ccc3cc[nH]c3c1)CC2` (centres undefined) registered an RP-LC retention time of 584 s.

The compound `Cc1ccc(-n2nc(C)c(S(=O)(=O)N3CCC(C(=O)NC4CC4)CC3)c2C)cc1` showed an RP-LC retention time of 789 s.

With `O=C(NCCN1CCN(C(=O)c2cccs2)CC1)c1ccc2nsnc2c1`, the RP-LC retention time was 550 s.

On to `COc1ccc(-c2cn3cccnc3n2)cc1NC(=O)c1ccc(Br)cc1`, for which the RP-LC retention time was found to be 738 s.

`Cc1nc(NC(=O)CN(C)c2nc3c(C)ccc(C)c3s2)sc1C(=O)N(C)C` registered an RP-LC retention time of 803 s.

Consider `Cc1cccc(-c2noc(C3CCCN3C(=O)NC(C)C)n2)c1` (centres undefined), for which the RP-LC retention time amounted to 897 s.

`Cc1ccc(-c2noc(C3CCCN3C(=O)c3ccccc3F)n2)cc1` (centres undefined) registered an RP-LC retention time of 1030 s.

With `CCc1nc(OCC(=O)Nc2ccccc2CC)c2ccccc2n1`, the RP-LC retention time was determined as 830 s.

Compound `COc1ccc(CCNC(=O)C2CCN(C(=O)C3Sc4ccccc4NC3=O)CC2)cc1OC` (centres undefined) gave an RP-LC retention time of 694 s.

`CCN(CC)c1nc(-c2ccccc2F)nc2ccccc12` had an RP-LC retention time of 700 s.

As for `CN(CC1CCOCC1)C(=O)Nc1cc(F)ccc1F`, the RP-LC retention time is 696 s.

The compound `Cc1cc(C)n(Cc2nc(-c3ccc(NC(=O)Cc4ccc(Cl)cc4)cc3)oc2C)n1` showed an RP-LC retention time of 997 s.

Take `O=C(Cn1ncccc1=O)NCc1ccco1`: the RP-LC retention time is 542 s.

`CCOC(=O)c1c(S(=O)(=O)N2CCC(C(=O)Nc3nccs3)CC2)c(C)n(C)c1C` gave an RP-LC retention time of 740 s.

For `CCc1nn2c(CNC(=O)c3ccc(OC)cc3)c(-c3ccccc3)nc2s1`, the RP-LC retention time was 881 s.

As to `CCOC(=O)c1ccc(NC(=O)CCc2c(-c3ccc(F)cc3)nc3ccccn23)cc1`, the RP-LC retention time came out at 700 s.

For the compound `Cc1ccc(-c2cc(-c3nc4c5ccccc5ncn4n3)[nH]n2)c(C)c1`, the RP-LC retention time was 900 s.

In the case of `Cc1csc(NC(=O)Cn2nc3c(cc2=O)CCCC3)n1`, the RP-LC retention time turned out to be 683 s.

In the case of `Cc1ccc(-c2nc(N3CC(C)CC(C)C3)c3ccccc3n2)cc1` (centres undefined), the RP-LC retention time was 932 s.

For `COc1ccc(-c2cn3c(CC(=O)N4CCN(C5CCCCC5)CC4)csc3n2)cc1OC`, the RP-LC retention time is 594 s.

Compound `CCOc1ccccc1-c1noc(Cn2cnc3c(oc4ccccc43)c2=O)n1` had an RP-LC retention time of 914 s.

In the case of `CCCn1c(=O)sc2cc(S(=O)(=O)N3CCC(C(=O)Nc4ccc(F)cc4)CC3)ccc21`, the RP-LC retention time worked out at 979 s.

On to `CCOc1cc(=O)n2c(c1C(=O)Nc1ccc(F)cc1F)CCCC2`, for which the RP-LC retention time came out at 726 s.

`COc1ccc(CC(=O)N2CCN(c3cc(C)n4cnnc4n3)CC2)cc1Cl` came in with an RP-LC retention time of 611 s.

Turning to `O=C(c1ccc(C(F)(F)F)cc1)N1CCc2nc(-c3ccc(F)cc3)ncc2C1`, the RP-LC retention time worked out at 1080 s.

In turn, `CCc1nnc([C@@H]2CC(F)(F)CN2C(=O)c2coc(C)n2)o1` had an RP-LC retention time of 678 s.

In turn, `O=C(CN1C(=O)C2CCCCN2c2ccc(S(=O)(=O)N3CCCC3)cc21)N1CCCCCC1` (centres undefined) displayed an RP-LC retention time of 918 s.

`Cc1ccc(NS(=O)(=O)c2cc3n(c2)CCCNC3=O)cc1` had an RP-LC retention time of 651 s.

Compound `O=S(=O)(Cc1ccc(Cl)cc1)N1CCc2nc(-c3ccc(Cl)cc3)ncc2C1` had an RP-LC retention time of 1210 s.

The compound `CCOc1ccccc1NC(=O)CN1C(=O)CC(c2cccs2)=Nc2ccccc21` gave an RP-LC retention time of 1050 s.

As to `O=C(Cn1cnc2nc(N3CCC(C(=O)NC4CC4)CC3)sc2c1=O)Nc1ccc(F)c(F)c1`, the RP-LC retention time came to 705 s.

With `CCOC(=O)c1noc2ncnc(Nc3cc(C)cc(C)c3)c12`, the RP-LC retention time was 1060 s.

`COc1ccc(OC)c(NC(=O)N2CCN(c3ccc(=O)n(-c4ccc(C)cc4)n3)CC2)c1` gave an RP-LC retention time of 835 s.

Regarding `COC(=O)Cn1c(C)cc(=O)n2nc(-c3cccc(C)c3)nc12`, the RP-LC retention time came to 784 s.

On to `O=C(c1cc2c(s1)CCC(C(=O)N1CCN(C3CCCC3)CC1)C2)N1CCCC1` (centres undefined), for which the RP-LC retention time worked out at 606 s.

As for `CC(CCc1ccccc1)NCc1ccc2c(c1)n(C)c(=O)n2C` (centres undefined), the RP-LC retention time amounted to 610 s.

As to `CC(C)CC(=O)NCCn1c(=O)n(Cc2ccc(F)cc2)c2cccnc21`, the RP-LC retention time is 750 s.

In turn, `CCOc1ccc(-c2nc(Cn3nnc(C(=O)NCc4ccc(OC)cc4)c3N)c(C)o2)cc1OC` had an RP-LC retention time of 922 s.

`Cc1ccc2c(Nc3cccc(C(C)C)c3)c(C(=O)N3CCC(C)CC3)cnc2n1` gave an RP-LC retention time of 737 s.

Take `CCCN1CCN(C(=O)c2sc(-c3cn(C(C)C)c4ncccc34)nc2C)CC1`: the RP-LC retention time is 619 s.

For `CCOC(=O)c1c(C)[nH]c(CCC(=O)NCc2ccc(SC)cc2)c1C`, the RP-LC retention time turned out to be 714 s.

In turn, `O=C(Cn1nc2nc(N3CCCC3)ccn2c1=O)NCc1ccc(F)c(Cl)c1` yielded an RP-LC retention time of 670 s.

The compound `Cc1cc(-c2csc(S(=O)(=O)NCCCN3CCN(C)CC3)c2)on1` yielded an RP-LC retention time of 580 s.

As for `O=C(CCC1CCCC1)NCCc1noc(C2CC2)n1`, the RP-LC retention time worked out at 807 s.

The values are drawn from the METLIN SMRT retention time set (Domingo-Almenara et al. 2019).
